The target of test [1] is T1, human GCS (Homo sapiens, UniProt Q16739).
T1 sequence (Q16739 1-394): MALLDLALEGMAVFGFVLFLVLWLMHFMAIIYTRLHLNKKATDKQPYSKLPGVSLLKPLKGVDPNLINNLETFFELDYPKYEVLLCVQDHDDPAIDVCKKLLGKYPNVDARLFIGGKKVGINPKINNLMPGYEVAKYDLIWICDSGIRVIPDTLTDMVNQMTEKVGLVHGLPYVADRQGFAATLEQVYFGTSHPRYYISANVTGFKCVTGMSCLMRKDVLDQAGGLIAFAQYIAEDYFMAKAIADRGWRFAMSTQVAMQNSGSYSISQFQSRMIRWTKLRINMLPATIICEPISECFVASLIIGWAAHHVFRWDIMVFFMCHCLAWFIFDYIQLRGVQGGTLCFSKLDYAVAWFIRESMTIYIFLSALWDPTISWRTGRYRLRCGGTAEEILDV
Kind of test: Inhibition of GCS (human recombinant GCS expressed in insect cells). The class given is biochemical. Also noted: made in house; host or cells: insect cells.

Test [2] addresses T1, human GCS. Put plainly: Cell-based IC50 for GCS inhibition by measuring glucosylceramide (GlcCer) depletion in MCF-7 cells. The conditions noted are these: MCF-7 cells cultured 5-7 days; GlcCer depletion by HPTLC; read-out: Inhibition of GCS Cellular-based (IC50 μM).
Test [3] deals with T2, non-lysosomal-β-glucocerebrosidase (Homo sapiens, UniProt Q9HCG7).
T2 construct: endogenous in cells; host or cells: MCF7 whole cell extracts
T2 sequence (Q9HCG7 1-927): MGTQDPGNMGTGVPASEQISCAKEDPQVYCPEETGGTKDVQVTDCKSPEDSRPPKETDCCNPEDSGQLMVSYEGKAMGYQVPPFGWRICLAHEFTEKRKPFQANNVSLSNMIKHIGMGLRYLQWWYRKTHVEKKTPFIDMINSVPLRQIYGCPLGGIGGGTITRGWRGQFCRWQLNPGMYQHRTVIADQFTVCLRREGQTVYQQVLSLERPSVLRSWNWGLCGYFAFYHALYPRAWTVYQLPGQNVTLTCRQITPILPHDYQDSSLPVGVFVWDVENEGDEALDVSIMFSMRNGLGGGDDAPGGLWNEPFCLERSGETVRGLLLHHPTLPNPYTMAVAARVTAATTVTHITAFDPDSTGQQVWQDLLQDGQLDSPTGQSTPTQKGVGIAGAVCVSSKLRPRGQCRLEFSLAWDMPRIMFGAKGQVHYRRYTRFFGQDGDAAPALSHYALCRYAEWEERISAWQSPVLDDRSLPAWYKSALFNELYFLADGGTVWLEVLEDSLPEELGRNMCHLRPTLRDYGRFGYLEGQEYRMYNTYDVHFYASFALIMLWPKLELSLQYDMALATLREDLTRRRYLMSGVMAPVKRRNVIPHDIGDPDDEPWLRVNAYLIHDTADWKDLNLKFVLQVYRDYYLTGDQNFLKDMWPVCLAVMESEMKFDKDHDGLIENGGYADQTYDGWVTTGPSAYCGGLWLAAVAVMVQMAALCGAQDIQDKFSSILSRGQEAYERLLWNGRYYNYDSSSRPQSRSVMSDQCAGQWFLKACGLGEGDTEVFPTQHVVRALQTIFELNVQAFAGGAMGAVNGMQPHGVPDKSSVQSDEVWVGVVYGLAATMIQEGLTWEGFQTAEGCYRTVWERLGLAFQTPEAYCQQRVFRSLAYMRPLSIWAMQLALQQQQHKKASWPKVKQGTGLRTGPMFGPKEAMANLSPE
Put plainly: Inhibition of non-lysosomal-β-glucocerebrosidase (whole cell extracts of MCF7). In kind it is biochemical. The procedure:
The assay for inhibition of non-lysosomal-β-glucocerebrosidase was essentially carried out as described in Overkleeft, H. S. et al., J. Biol. Chem., (1998) 273, 26522-26527 with the following differences: whole cell extracts of MCF7 (a human breast carcinoma cell line) was used as the source of the enzyme instead of splenic membrane suspensions; 5mM instead of 3Mm, 4-MU β-glucoside was used as substrate and 0.2M citrate/phosphate (pH 5.8) was used instead of McIlvaine buffer.

For the next test, the system named is glycolipid biosynthesis. As to conditions: as disclosed in EP-A-0698012; cited from earlier work.

Data on 9 compounds can be found in patent US7994198B2, “Piperidinetriol derivatives as inhibitors of glycosylceramidsynthase” (Actelion Pharmaceuticals Ltd., priority 2002, dated 2011).

Structures are written as SMILES. Where two headings read alike, the source gives them in different places.

`O=C(NCc1ccc(F)cc1)c1ccc(CN2C[C@H](O)[C@@H](O)[C@@H](O)[C@@H]2CO)cc1` [Example 1, Benzamide, N-[(4-fluorophenyl)methyl]4-[[(2S,3S,4R,5S)-3,4,5-trihydroxy-2-(hydroxymethyl)-1-piperidinyl]methyl]-,]: at human GCS [1], the IC50 amounted to 2.2 µM.

Regarding `OC[C@H]1[C@H](O)[C@H](O)[C@@H](O)CN1Cc1ccc(OCc2ccccc2)cc1` [Example 2, 3,4,5-Piperidinetriol, 2-(hydroxymethyl)-1-[[4-(phenylmethoxy)phenyl]methyl]-, (2S,3S,4R,5S)], the values for the half-maximal inhibitory concentration (IC50) (on human GCS [2]; in test [3]; at human GCS [1]) were less than 0.1 µM, 9.4 µM and 0.66 µM, respectively.

Turning to `C[C@H](NC(=O)c1ccc(CN2C[C@H](O)[C@@H](O)[C@@H](O)[C@@H]2CO)cc1)c1ccccc1` [Example 3, Benzamide, N-[1-(S)-(phenyl)ethyl]-4-[[(2S,3S,4R,5S)-3,4,5-trihydroxy-2-(hydroxymethyl)-1-piperidinyl]methyl]-,], the half-inhibitory concentration (IC50) in test [3] was 14.9 µM; at human GCS [1], 7.2 µM.

Turning to `CCCN(CCC)c1ccc(CN2C[C@H](O)[C@@H](O)[C@@H](O)[C@@H]2CO)cc1C#N` [Example 4, 3,4,5-Piperidinetriol, 1-[(3-cyano-4-(dipropylamino)phenyl)methyl]-2-(hydroxymethyl), (2S,3S,4R,5S)], the IC50 stood at 1.93 µM in test [3] (MCF7 whole cell extract, 5mM 4-MU β-glucoside, citrate/phosphate pH 5.8, read-out: Inhibition of non-lysosomal-β-glucocerebrosidase (IC50 μM)) and 0.62 µM at human GCS [1].

Take `C[C@@H](NC(=O)c1ccc(CN2C[C@H](O)[C@@H](O)[C@@H](O)[C@@H]2CO)cc1)c1ccccc1` [Example 6, Benzamide, N-[1-(R)-(phenyl)ethyl]4-[[(2S,3S,4R,5S)-3,4,5-trihydroxy-2-(hydroxymethyl)-1-piperidinyl]methyl]-,]: the concentration for half-maximal inhibition (IC50) at human GCS [2] came to 1 µM.

With `C[C@@H](NC(=O)c1ccc(CN2C[C@H](O)[C@@H](O)[C@@H](O)[C@@H]2CO)cc1)c1ccc(F)cc1` [Example 7, Benzamide, N-[1-(R)-(4-fluorophenyl)ethyl]-4-[[(2S,3S,4R,5S)-3,4,5-trihydroxy-2-(hydroxymethyl)-1-piperidinyl]methyl]-,], the figures for the 50% inhibitory concentration (IC50) (in test [3]; at human GCS [1]) were greater than 100 µM and 4.7 µM, respectively.

Turning to `CCCCN1C[C@@H](O)[C@H](O)[C@H](O)[C@@H]1C` [NB-DFJ], in the test on glycolipid biosynthesis, the “Inhibition of glycolipid biosynthesis” value is “do not act as inhibitors of glycolipid biosynthesis”.

For `CCCCN1C[C@@H](O)[C@@H](O)[C@H](O)[C@H]1CO` [NB-DMJ], in the test with glycolipid biosynthesis, the “Inhibition of glycolipid biosynthesis” value is “do not act as inhibitors of glycolipid biosynthesis”.

With `CCCCN1C[C@H](NC(C)=O)[C@@H](O)[C@H](O)[C@H]1CO` [NB-NAG], in the test with glycolipid biosynthesis, the “Inhibition of glycolipid biosynthesis” value is on record as “do not act as inhibitors of glycolipid biosynthesis”.
